The target of this experiment is T1, glucocorticoid receptor (Homo sapiens, UniProt P04150).
T1 construct: host or cells: A549 human lung epithelial cells (sonicated cell extract)
T1 sequence (P04150 1-777): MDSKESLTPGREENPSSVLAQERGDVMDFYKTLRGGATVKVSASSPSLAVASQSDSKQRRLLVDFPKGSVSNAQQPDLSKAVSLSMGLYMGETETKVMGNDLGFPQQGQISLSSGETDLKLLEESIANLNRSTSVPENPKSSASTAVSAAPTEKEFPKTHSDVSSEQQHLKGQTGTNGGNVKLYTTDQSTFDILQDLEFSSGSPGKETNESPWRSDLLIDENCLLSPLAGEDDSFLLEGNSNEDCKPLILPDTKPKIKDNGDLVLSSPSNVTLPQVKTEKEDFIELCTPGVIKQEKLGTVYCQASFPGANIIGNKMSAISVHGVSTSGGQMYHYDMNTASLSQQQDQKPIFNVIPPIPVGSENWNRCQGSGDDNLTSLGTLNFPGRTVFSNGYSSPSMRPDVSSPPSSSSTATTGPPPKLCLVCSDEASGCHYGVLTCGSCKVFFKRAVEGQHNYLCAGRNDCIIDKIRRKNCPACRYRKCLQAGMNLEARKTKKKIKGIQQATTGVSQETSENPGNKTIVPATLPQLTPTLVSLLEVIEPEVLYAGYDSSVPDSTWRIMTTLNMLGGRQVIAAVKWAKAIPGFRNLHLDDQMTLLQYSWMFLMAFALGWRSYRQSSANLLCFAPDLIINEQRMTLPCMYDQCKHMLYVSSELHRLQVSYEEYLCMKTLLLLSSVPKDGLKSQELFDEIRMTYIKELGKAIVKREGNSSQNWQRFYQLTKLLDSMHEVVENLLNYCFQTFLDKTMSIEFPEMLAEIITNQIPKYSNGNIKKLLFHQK
Nature of the experiment: Glucocorticoid Receptor Binding Assay ([3H]-dexamethasone displacement, A549 cell extract). Conditions: A549 human lung epithelial cell extract, 1.86 nM [3H]-dexamethasone; read-out: GR Ki. The method, boiled down: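 A549 cell extract (50-200 ug; buffer 50 mM Tris-HCl pH 7.2 with glycerol, NaCl, MgCl2, EDTA, 10 mM molybdate) incubated with 1.86 nM [3H]-dexamethasone and test compound, 16 h at 4 °C. Unbound ligand removed with dextran-coated charcoal; bound radioactivity counted. IC50 converted to Ki via Cheng-Prusoff.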
`O=C1N(Cc2ccccc2)c2ccccc2C1(c1cc(Cl)c(O)c(Cl)c1)c1cc(Cl)c(O)c(Cl)c1` [Example 14, 1-Benzyl-3,3-bis-(3,5-dichloro-4-hydroxy-phenyl)-1,3-dihydro-indol-2-one]: the inhibition constant (Ki) was no more than 500 nM. As for `COc1cccc(CN2C(=O)C(c3cc(C)c(O)c(C)c3)(c3cc(C)c(O)c(C)c3)c3ccccc32)c1` [Example 56, 3,3-Bis-(4-hydroxy-3,5-dimethyl-phenyl)-1-(3-methoxy-benzyl)-1,3-dihydro-indol-2-one], the Ki is no more than 500 nM.

As for `Cc1cc(C2(c3cc(C)c(O)c(C)c3)C(=O)N(Cc3ccccc3F)c3ccccc32)cc(C)c1O` [Example 50, 1-(2-Fluoro-benzyl)-3,3-bis-(4-hydroxy-3,5-dimethyl-phenyl)-1,3-dihydro-indol-2-one], the Ki is no more than 500 nM.

For `Cc1cc(C2(c3cc(C)c(O)c(C)c3)C(=O)N(Cc3ccccc3N)c3ccccc32)cc(C)c1O` [Example 119, 1-(2-Amino-benzyl)-3,3-bis-(4-hydroxy-3,5-dimethyl-phenyl)-1,3-dihydro-indol-2-one], the inhibition constant Ki was no more than 500 nM. The figure for `Cc1ccc2c(c1)C(c1cc(C)c(O)c(C)c1)(c1cc(C)c(O)c(C)c1)C(=O)N2Cc1ccccc1C` [Example 21, 3,3-Bis-(4-hydroxy-3,5-dimethyl-phenyl)-5-methyl-1-(2-methyl-benzyl)-1,3-dihydro-indol-2-one] is no more than 500 nM.

Source of the values: patent US7250442B2, “Dihydroindol-2-one derivatives as steroid hormone nuclear receptor modulators” (Eli Lilly and Company, priority 2003, dated 2007).
